Measured values reported in US6750211B2, “Diimino compounds for use as modulators of cell regulation” (Emory University, priority 1999, dated 2004).

System: J774A.1 cells
Test: Suppression of the sphingosine "burst" on change to new medium
Assay type: cell-based, murine
Description: J774A.1 cells (No. TIB 67, a murine macrophage-like transformed cell line) were obtained from the American Type Culture Collection (Rockville, Md.) and grown in DMEM and 10% FBS and sodium bicarbonate (3.7 g/l) in a spinner flask at 37° C. and an atmosphere of 5% CO2. Cells were passaged every two to three days by a 1:4 dilution with fresh medium to a density of approximately 2.5×10^5 cells/ml. Cells were used between passages 3 and 24.
Unless indicated differently, suspended cells were removed from the spinner flask, collected by gentle centrifugation (in a table top centrifuge), resuspended in new medium, added to 60 mm tissue culture dishes at 5 to 7.5×10^5 cells per 2 ml of medium. Under these conditions, the cells adhere to the dish rather than grow in suspension. The cells were incubated at 37° C., 5% CO2, for three days before beginning by removing the conditioned medium and adding fresh medium to initiate the “burst”.
After incubation of the cells, the medium was removed, 0.5 ml of ice-cold methanol added, and the cells scraped from the dishes with a rubber spatula. The plates were scraped again with 0.4 ml of deionized water, followed by 0.4 ml of methanol. Cells and washes were pooled in 13×100 mm test tubes, 200 to 300 pmol of C20-sphinganine added as an internal standard, and the long-chain bases extracted- and analyzed by HPLC (as described by Merrill, A. H., Jr., et al., (1988) Anal. Biochem. 171, 373-381) with C20-sphinganine as an internal standard.

IC50 (Mus musculus, J774.A1, titration with purified fraction III added with DMEM, concentration approximated from TNBS amine estimate, FIG. 9, read-out: apparent concentration for 50% suppression of the sphingosine burst)	Structure (SMILES)	fold more concentrated than conditioned medium (volume to volume comparison of amount needed to suppress the burst) (compared with conditioned medium)	volume giving 50% suppression of the sphingosine burst (purified fraction III (amine concentration about 200 mM) added with DMEM, FIG. 9)	share of the suppression of the sphingosine burst accounted for by the ammonia concentration of conditioned medium (at most time points, calculated from FIGS. 6A and B, FIG. 7)	suppression of the sphingosine burst (in words) (sphingosine measured after adding medium to J774 cells)
1 to 3 mM	N=C1NC(=N)C(CCCCN)NC1CCCCN (single isomer, unassigned) [fraction III, 2,6-bis-(ω-aminobutyl)-3,5-diimino-piperazine]	greater than 200 fold	30 µL	–	–
–	N [NH4^+, reference compound]	–	–	greater than 50%	shown to suppress the sphingosine burst
